Experimental data from ChEMBL document CHEMBL3217615, “Novel 3,5-bis(arylidiene)-4-piperidone based monocarbonyl analogs of curcumin: anticancer activity evaluation and mode of action study” (2014).

Legend:
Type in all cases: functional
RPMI-8226 [1] = test: Growth inhibition of human RPMI8226 cells assessed as cell growth at 10^-8 M after 48 hrs by sulforhodamine B assay; conditions: RPMI-8226, 48 h; for growth at 0.01 µM: read-out: Activity; for CC50: read-out: pLC50 (the source's name) (converted); for TGI: read-out: pTGI (converted)
[2] = Growth inhibition of human NCI-ADR-RES cells after 48 hrs by sulforhodamine B assay; conditions: for CC50: read-out: LC50 (the source's name)
A498 = test: Growth inhibition of human A498 cells assessed as cell growth at 10^-4 M after 48 hrs by sulforhodamine B assay; conditions: A498, 48 h, read-out: Activity
MDA-MB-435 = test: Growth inhibition of human MDA-MB-435 cells assessed as cell growth at 10^-4 M after 48 hrs by sulforhodamine B assay; conditions: MDA-MB-435, 48 h, read-out: Activity
NCI-H226 = test: Growth inhibition of human NCI-H226 cells after 48 hrs by sulforhodamine B assay; conditions: NCI-H226, 48 h; for CC50: read-out: LC50 (the source's name)
NCI-H322M = test: Growth inhibition of human NCI-H322M cells assessed as cell growth at 10^-6 M after 48 hrs by sulforhodamine B assay; conditions: read-out: Activity
DU-145 = test: Growth inhibition of human DU145 cells assessed as cell growth at 10^-6 M after 48 hrs by sulforhodamine B assay; conditions: DU-145, 48 h, read-out: Activity
KM12 = test: Growth inhibition of human KM12 cells assessed as cell growth at 10^-8 M after 48 hrs by sulforhodamine B assay; conditions: KM12, 48 h; for growth at 0.01 µM: read-out: Activity; for TGI: read-out: pTGI (converted)
IGROV-1 [3] = test: Growth inhibition of human IGROV1 cells assessed as cell growth at 10^-7 M after 48 hrs by sulforhodamine B assay; conditions: IGROV-1, 48 h, read-out: Activity
A549 [4] = test: Growth inhibition of human A549/ATCC cells assessed as cell growth at 10^-7 M after 48 hrs by sulforhodamine B assay; conditions: A549, 48 h, read-out: Activity
SK-MEL-2 [5] = test: Growth inhibition of human SK-MEL-2 cells assessed as cell growth at 10^-7 M after 48 hrs by sulforhodamine B assay; conditions: SK-MEL-2, 48 h, read-out: Activity
[6] = Growth inhibition of human OVCAR8 cells assessed as cell growth at 10^-7 M after 48 hrs by sulforhodamine B assay; conditions: OVCAR-8, 48 h, read-out: Activity
[7] = Growth inhibition of human NCI-ADR-RES cells assessed as cell growth at 10^-4 M after 48 hrs by sulforhodamine B assay; conditions: read-out: Activity
HL-60(TB) [8] = test: Growth inhibition of human HL-60(TB) cells assessed as cell growth at 10^-7 M after 48 hrs by sulforhodamine B assay; conditions: HL-60, 48 h, read-out: Activity
SK-MEL-2 [9] = test: Growth inhibition of human SK-MEL-2 cells assessed as cell growth at 10^-5 M after 48 hrs by sulforhodamine B assay; conditions: SK-MEL-2, 48 h, read-out: Activity
T47D = test: Growth inhibition of human T47D cells assessed as cell growth at 10^-4 M after 48 hrs by sulforhodamine B assay; conditions: read-out: Activity
[10] = Growth inhibition of human OVCAR8 cells assessed as cell growth at 10^-6 M after 48 hrs by sulforhodamine B assay; conditions: OVCAR-8, 48 h, read-out: Activity
[11] = Growth inhibition of human OVCAR5 cells assessed as cell growth at 10^-6 M after 48 hrs by sulforhodamine B assay; conditions: OVCAR-5, 48 h, read-out: Activity
IGROV-1 [12] = test: Growth inhibition of human IGROV1 cells after 48 hrs by sulforhodamine B assay; conditions: IGROV-1, 48 h; for CC50: read-out: LC50 (the source's name)
Malme-3M = test: Growth inhibition of human MALME-3M cells assessed as cell growth at 10^-8 M after 48 hrs by sulforhodamine B assay; conditions: for growth at 0.01 µM: read-out: Activity
U-251 = test: Growth inhibition of human U251 cells assessed as cell growth at 10^-8 M after 48 hrs by sulforhodamine B assay; conditions: U-251, 48 h; for growth at 0.01 µM: read-out: Activity; for TGI: read-out: pTGI (converted)
[13] = Growth inhibition of human OVCAR4 cells after 48 hrs by sulforhodamine B assay; conditions: OVCAR-4, 48 h; for CC50: read-out: LC50 (the source's name)
SNB-19 = test: Growth inhibition of human SNB19 cells assessed as cell growth at 10^-4 M after 48 hrs by sulforhodamine B assay; conditions: SNB-19, 48 h, read-out: Activity
CAKI-1 = test: Growth inhibition of human CAKI-1 cells assessed as cell growth at 10^-7 M after 48 hrs by sulforhodamine B assay; conditions: CAKI-1, 48 h, read-out: Activity
IGROV-1 [14] = test: Growth inhibition of human IGROV1 cells assessed as cell growth at 10^-8 M after 48 hrs by sulforhodamine B assay; conditions: IGROV-1, 48 h; for growth at 0.01 µM: read-out: Activity; for TGI: read-out: pTGI (converted)
[15] = Growth inhibition of human UACC62 cells assessed as cell growth at 10^-8 M after 48 hrs by sulforhodamine B assay; conditions: UACC-62, 48 h; for growth at 0.01 µM: read-out: Activity; for TGI: read-out: pTGI (converted)
RPMI-8226 [16] = test: Growth inhibition of human RPMI8226 cells assessed as cell growth at 10^-6 M after 48 hrs by sulforhodamine B assay; conditions: RPMI-8226, 48 h, read-out: Activity
COLO 205 = test: Induction of apoptosis in human COLO205 cells assessed as late apoptosis cells level at 10 uM after 24 hrs by Annexin V/propidium iodide staining-based fluorescence microscopy
HL-60(TB) [17] = test: Growth inhibition of human HL-60(TB) cells assessed as cell growth at 10^-8 M after 48 hrs by sulforhodamine B assay; conditions: HL-60, 48 h; for growth at 0.01 µM: read-out: Activity; for CC50: read-out: pLC50 (the source's name) (converted); for TGI: read-out: pTGI (converted)
[18] = Growth inhibition of human SF539 cells assessed as cell growth at 10^-6 M after 48 hrs by sulforhodamine B assay; conditions: SF-539, 48 h, read-out: Activity
NCI-H522 = test: Growth inhibition of human NCI-H522 cells after 48 hrs by sulforhodamine B assay; conditions: NCI-H522, 48 h; for CC50: read-out: LC50 (the source's name)
A549 [19] = test: Growth inhibition of human A549/ATCC cells assessed as cell growth at 10^-8 M after 48 hrs by sulforhodamine B assay; conditions: A549, 48 h; for growth at 0.01 µM: read-out: Activity; for TGI: read-out: pTGI (converted)

## O=C1/C(=C/c2ccc(Cl)cc2Cl)CN(S(=O)(=O)c2ccccc2)C/C1=C\c1ccc(Cl)cc1Cl
RPMI-8226 [1]
  GI50: 0.224 µM
  growth at 0.01 µM: 104%
  CC50: > 100 µM
  TGI: 0.603 µM
[2]
  GI50: 1.37 µM
  TGI: > 100 µM
  CC50: > 100 µM
A498
  growth at 100 µM: -8%
MDA-MB-435
  growth at 100 µM: -9%
NCI-H226
  GI50: 1.04 µM
  TGI: 2.87 µM
  CC50: 7.92 µM
NCI-H322M
  growth at 1 µM: 35%
DU-145
  growth at 1 µM: 18%
KM12
  GI50: 0.257 µM
  LC50: 25.7 µM
  growth at 0.01 µM: 100%
  TGI: 0.603 µM
IGROV-1 [3]
  growth at 0.1 µM: 130%
A549 [4]
  growth at 0.1 µM: 94%
SK-MEL-2 [5]
  growth at 0.1 µM: 111%
[6]
  growth at 0.1 µM: 94%
[7]
  growth at 100 µM: 21%
HL-60(TB) [8]
  growth at 0.1 µM: 92%
SK-MEL-2 [9]
  growth at 10 µM: 36%
T47D
  growth at 100 µM: 11%
[10]
  growth at 1 µM: -2%
[11]
  growth at 1 µM: 80%
IGROV-1 [12]
  GI50: 0.317 µM
  TGI: 0.649 µM
  CC50: > 100 µM
Malme-3M
  GI50: 3.24 µM
  LC50: > 100 µM
  growth at 0.01 µM: 118%
U-251
  GI50: 0.174 µM
  LC50: 0.813 µM
  growth at 0.01 µM: 96%
  TGI: 0.372 µM
[13]
  GI50: 0.279 µM
  TGI: > 100 µM
  CC50: > 100 µM
SNB-19
  growth at 100 µM: -23%
CAKI-1
  growth at 0.1 µM: 92%
IGROV-1 [14]
  GI50: 0.316 µM
  LC50: > 100 µM
  growth at 0.01 µM: 116%
  TGI: 0.646 µM
[15]
  GI50: 0.813 µM
  LC50: 5.75 µM
  growth at 0.01 µM: 94%
  TGI: 2.29 µM
RPMI-8226 [16]
  growth at 1 µM: -25%
COLO 205
  Activity: 18%
HL-60(TB) [17]
  GI50: 0.562 µM
  growth at 0.01 µM: 97%
  CC50: > 100 µM
  TGI: 3.98 µM
[18]
  growth at 1 µM: 22%
NCI-H522
  GI50: 0.854 µM
  TGI: 2.99 µM
  CC50: 9.73 µM
A549 [19]
  GI50: 0.275 µM
  LC50: > 100 µM
  growth at 0.01 µM: 93%
  TGI: 0.891 µM

## Cc1ccc(S(=O)(=O)N2C/C(=C\c3cc(F)cc(F)c3)C(=O)/C(=C/c3cc(F)cc(F)c3)C2)cc1
RPMI-8226 [1]
  GI50: 0.0372 µM
  growth at 0.01 µM: 94%
  CC50: 93.3 µM
  TGI: 0.331 µM
[2]
  GI50: 0.439 µM
  TGI: 10.1 µM
  CC50: 76.7 µM
A498
  growth at 100 µM: -86%
MDA-MB-435
  growth at 100 µM: -83%
NCI-H226
  GI50: 8.62 µM
  TGI: 39.6 µM
  CC50: > 100 µM
NCI-H322M
  growth at 1 µM: 101%
DU-145
  growth at 1 µM: 62%
KM12
  GI50: 0.324 µM
  LC50: 4.07 µM
  growth at 0.01 µM: 106%
  TGI: 1 µM
IGROV-1 [3]
  growth at 0.1 µM: 106%
A549 [4]
  growth at 0.1 µM: 93%
SK-MEL-2 [5]
  growth at 0.1 µM: 112%
[6]
  growth at 0.1 µM: 82%
[7]
  growth at 100 µM: -57%
HL-60(TB) [8]
  growth at 0.1 µM: 89%
SK-MEL-2 [9]
  growth at 10 µM: -44%
T47D
  growth at 100 µM: -61%
[10]
  growth at 1 µM: 15%
[11]
  growth at 1 µM: 51%
IGROV-1 [12]
  GI50: 0.436 µM
  TGI: 1.55 µM
  CC50: 5.17 µM
Malme-3M
  GI50: 0.275 µM
  LC50: 3.8 µM
  growth at 0.01 µM: 97%
Malme-3M; read-out: pTGI (converted)
  TGI: 0.741 µM
U-251
  GI50: 0.186 µM
  LC50: 2.04 µM
  growth at 0.01 µM: 94%
  TGI: 0.525 µM
[13]
  GI50: 0.441 µM
  TGI: 5.23 µM
  CC50: 36.3 µM
SNB-19
  growth at 100 µM: -100%
CAKI-1
  growth at 0.1 µM: 94%
IGROV-1 [14]
  GI50: 0.437 µM
  LC50: 5.13 µM
  growth at 0.01 µM: 106%
  TGI: 1.55 µM
[15]
  GI50: 0.214 µM
  LC50: 1.62 µM
  growth at 0.01 µM: 94%
  TGI: 0.513 µM
RPMI-8226 [16]
  growth at 1 µM: -16%
COLO 205
  Activity: 43%
HL-60(TB) [17]
  GI50: 0.288 µM
  growth at 0.01 µM: 116%
  CC50: > 100 µM
  TGI: 1.74 µM
[18]
  growth at 1 µM: 61%
NCI-H522
  GI50: 0.316 µM
  TGI: 0.962 µM
  CC50: 3.85 µM
A549 [19]
  GI50: 2.88 µM
  LC50: > 100 µM
  growth at 0.01 µM: 94%
  TGI: 14.8 µM
